Test results as given in paper PMC10340464, “Identification of a Novel SSTR3 Full Agonist for the Treatment of Nonfunctioning Pituitary Adenomas” (Cancers, 2023).

Test system: SSTR3-tGFP
Test: Receptor internalization in U2OS-transfected cells (SSTR3-tGFP)
Assay type: cell-based, human
Details: 3 h, high-content imaging, n = 3, method: percentage of activity relative to SST28 10^−6 M
Procedure: Compounds were tested at five concentrations (10^−5, 10^−6, 10^−7, 10^−8, 10^−9 M) in comparison to untreated cells.
SST agonists were added to U2OS recombinant cell lines in OptiMeM medium (Life technologies 51985-034, Monza, Italy) for 3 h (SSTR2, SSTR3) or 7 h (SSTR5) (n = 3). After formaldehyde fixation, nuclei were stained using DAPI (2 µg/mL), and the fluorescence was measured with BD Pathway 855 High-Content Bioimager from Becton Dickinson. The receptor internalization was calculated using AttoVision 1.6 Software. Approximately 500 cells per field were analyzed. […]
(Invitrogen, Carlsbad, CA). Stable transfectants were selected in the presence of 500 µg/ml G-418. […]
% picric acid in phosphate buﬀer (pH 6.9) for 30 minutes at room temperature (RT). […]
3.2. U2OS human cell lines transfected with human receptors (SSTR2-tGFP, SSTR3-tGFP,
Compounds were tested at ﬁve d iﬀerent concentrations (10-5, 10-6, 10-7, 10-8, 10^-9 M) in comparison to untreated cells.
U2OS recombinant cell lines were obtained from Innoprot (Derio, Spain). […] Nuclei were stained using DAPI (2 μg/ml) and the ﬂuorescence was measured using a BD Pathway 855 High-Content Bioimager from Becton Dickinson. The receptor internalization was calculated using AttoVision Software. […]
Agonist activity of test compounds was calculated relatively to positive control

SMILES: COc1cc2cccc(OC)c2cc1C[C@H]1NC(=O)[C@H](Cc2ccc(O)cc2)NC(=O)[C@@H]2C[C@@H](OC(=O)NCCN)CN2C(=O)[C@H](Cc2ccccc2)NC(=O)[C@H](Cc2ccc(OCc3ccccc3)cc2)NC(=O)[C@H](CCCCN)NC1=O [ITF2984, Cyclo[Tyr(Bn)-Phe-Pro(4-OCONH(CH2)2NH2)-Tyr-3,8-diMeONal-Lys]]
- Receptor internalization in U2OS-transfected cells, SSTR3, at 10^−5 M (10^−5 M): 61.1
- Receptor internalization in U2OS-transfected cells, SSTR3, at 10^−6 M (value in brackets) (10^−6 M): 62.5
